Read-outs that look alike come from different tables or passages of the source.
Columns and labels:
[1] = test system: HIV-1; test: Antiviral assay against HIV-1 in MT-4 cells; assay type: cell-based; settings: HIV-1IIIb in MT-4 cells
[2] = test system: SHIV-SF162P3; assay type: in vivo, rhesus macaques

With `CC(C)(C#Cc1ccc(-c2ccc(Cl)c3c(NS(C)(=O)=O)nn(CC(F)(F)F)c23)c([C@H](Cc2cc(F)cc(F)c2)NC(=O)Cn2nc(C(F)(F)F)c3c2C(F)(F)[C@@H]2C[C@H]32)n1)S(C)(=O)=O` [LEN, Lenacapavir] the “Hill coefficient (n)” value [1] was 3.51 ± 0.31, the “time of measurable anti-capsid (p27) antibodies” value ([2]; 3 animals positive for SHIV by qPCR) was no more than 4 week after challenge and the “first detectable intact SHIV DNA” value ([2]; 3 animals with confirmed viremia) was 2 week after challenge. For the same compound, the animals becoming infected ([2]; LEN exposure above the 70 nM target at challenge) was 0 of 6, the “Animal number, Infected” value ([2]; LEN-dosed <target (70 nM)) was 3 and the “Animal number, Uninfected” value ([2]; LEN-dosed <target (70 nM)) was 2. For the same compound, the “Animal number, Infected” value ([2]; LEN-dosed >target (70 nM)) was 0, the “Animal number, Uninfected” value ([2]; LEN-dosed >target (70 nM)) was 6 and the “Animal number, Infected” value ([2]; LEN-dosed total) was 3. The “Animal number, Uninfected” value ([2]; LEN-dosed total) was 8, the Challenge outcome ([2]; animal BM55, 20 mg/kg) was “Infected” and the “Intact SHIV DNA / 10M PBMC” value ([2]; animal BM55, 20 mg/kg, Wk 2 post challenge) was 145.35 / 10M PBMC. The “Plasma SHIV RNA” value ([2]; animal BM55, 20 mg/kg, week 6 post challenge) was 7809 copies per mL, the “Plasma SHIV RNA” value ([2]; animal BM55, 20 mg/kg, week 7 post challenge) was 4541 copies per mL and the “Plasma SHIV RNA” value ([2]; animal BM55, 20 mg/kg, week 8 post challenge) was 69 copies per mL. The “Plasma SHIV RNA” value ([2]; animal BM55, 20 mg/kg, week 9 post challenge) was 62 copies per mL, the “Plasma SHIV RNA” value ([2]; animal BM55, 20 mg/kg, week 10 post challenge) was 62 copies per mL and the Challenge outcome ([2]; animal BN33, 20 mg/kg) was “Not infected”. The “Intact SHIV DNA / 10M PBMC” value ([2]; animal BN33, 20 mg/kg, Wk 2 post challenge) was 1 / 10M PBMC, the “Intact SHIV DNA / 10M PBMC” value ([2]; animal BN33, 20 mg/kg, Wk 10 post challenge) was 1 / 10M PBMC and the “Plasma SHIV RNA” value ([2]; animal BN33, 20 mg/kg, week 6 post challenge) was 62 copies per mL. The “Plasma SHIV RNA” value ([2]; animal BN33, 20 mg/kg, week 7 post challenge) was 62 copies per mL, the “Plasma SHIV RNA” value ([2]; animal BN33, 20 mg/kg, week 8 post challenge) was 62 copies per mL and the “Plasma SHIV RNA” value ([2]; animal BN33, 20 mg/kg, week 9 post challenge) was 62 copies per mL. For the same compound, the “Plasma SHIV RNA” value ([2]; animal BN33, 20 mg/kg, week 10 post challenge) was 62 copies per mL, the Challenge outcome ([2]; animal CP67, 75 mg/kg) was “Not infected” and the “Intact SHIV DNA / 10M PBMC” value ([2]; animal CP67, 75 mg/kg, Wk 2 post challenge) was 1 / 10M PBMC. For the same compound, the “Intact SHIV DNA / 10M PBMC” value ([2]; animal CP67, 75 mg/kg, Wk 10 post challenge) was 1 / 10M PBMC, the “Plasma SHIV RNA” value ([2]; animal CP67, 75 mg/kg, week 0 post challenge) was 62 copies per mL and the “Plasma SHIV RNA” value ([2]; animal CP67, 75 mg/kg, week 1 post challenge) was 62 copies per mL. The “Plasma SHIV RNA” value ([2]; animal CP67, 75 mg/kg, week 2 post challenge) was 62 copies per mL, the Challenge outcome ([2]; animal V229, 20 mg/kg) was “Infected” and the “Intact SHIV DNA / 10M PBMC” value ([2]; animal V229, 20 mg/kg, Wk 2 post challenge) was 398.25 / 10M PBMC. The “Plasma SHIV RNA” value ([2]; animal V229, 20 mg/kg, week 6 post challenge) was 189 copies per mL, the “Plasma SHIV RNA” value ([2]; animal V229, 20 mg/kg, week 7 post challenge) was 79 copies per mL and the “Plasma SHIV RNA” value ([2]; animal V229, 20 mg/kg, week 8 post challenge) was 69 copies per mL. The “Plasma SHIV RNA” value ([2]; animal V229, 20 mg/kg, week 9 post challenge) was 62 copies per mL, the “Plasma SHIV RNA” value ([2]; animal V229, 20 mg/kg, week 10 post challenge) was 62 copies per mL and the Challenge outcome ([2]; animal V411, 50 mg/kg) was “Not infected”. The “Intact SHIV DNA / 10M PBMC” value ([2]; animal V411, 50 mg/kg, Wk 2 post challenge) was 1 / 10M PBMC, the “Intact SHIV DNA / 10M PBMC” value ([2]; animal V411, 50 mg/kg, Wk 10 post challenge) was 1 / 10M PBMC and the “Plasma SHIV RNA” value ([2]; animal V411, 50 mg/kg, week 0 post challenge) was 62 copies per mL. For the same compound, the “Plasma SHIV RNA” value ([2]; animal V411, 50 mg/kg, week 1 post challenge) was 62 copies per mL, the “Plasma SHIV RNA” value ([2]; animal V411, 50 mg/kg, week 2 post challenge) was 62 copies per mL and the “Plasma SHIV RNA” value ([2]; animal V411, 50 mg/kg, week 3 post challenge) was 62 copies per mL. For the same compound, the “Plasma SHIV RNA” value ([2]; animal V411, 50 mg/kg, week 4 post challenge) was 62 copies per mL, the “Plasma SHIV RNA” value ([2]; animal V411, 50 mg/kg, week 5 post challenge) was 62 copies per mL and the “Plasma SHIV RNA” value ([2]; animal V411, 50 mg/kg, week 6 post challenge) was 62 copies per mL. For the same compound, the “Plasma SHIV RNA” value ([2]; animal V411, 50 mg/kg, week 7 post challenge) was 62 copies per mL, the “Plasma SHIV RNA” value ([2]; animal V411, 50 mg/kg, week 8 post challenge) was 62 copies per mL and the “Plasma SHIV RNA” value ([2]; animal V411, 50 mg/kg, week 9 post challenge) was 62 copies per mL. For the same compound, the “Plasma SHIV RNA” value ([2]; animal V411, 50 mg/kg, week 10 post challenge) was 62 copies per mL, the “Plasma SHIV RNA” value ([2]; animal V411, 50 mg/kg, week 11 post challenge) was 62 copies per mL and the “Plasma SHIV RNA” value ([2]; animal V411, 50 mg/kg, week 12 post challenge) was 62 copies per mL. For the same compound, the “Plasma SHIV RNA” value ([2]; animal V411, 50 mg/kg, week 13 post challenge) was 62 copies per mL, the “Plasma SHIV RNA” value ([2]; animal V411, 50 mg/kg, week 14 post challenge) was 62 copies per mL and the “Plasma SHIV RNA” value ([2]; animal V411, 50 mg/kg, week 15 post challenge) was 62 copies per mL. The “Plasma SHIV RNA” value ([2]; animal V411, 50 mg/kg, week 16 post challenge) was 62 copies per mL, the “Plasma SHIV RNA” value ([2]; animal V411, 50 mg/kg, week 17 post challenge) was 62 copies per mL and the “Plasma SHIV RNA” value ([2]; animal V411, 50 mg/kg, week 18 post challenge) was 62 copies per mL. For the same compound, the Challenge outcome ([2]; animal V417, 75 mg/kg) was “Not infected”, the “Intact SHIV DNA / 10M PBMC” value ([2]; animal V417, 75 mg/kg, Wk 2 post challenge) was 1 / 10M PBMC and the “Intact SHIV DNA / 10M PBMC” value ([2]; animal V417, 75 mg/kg, Wk 10 post challenge) was 1 / 10M PBMC. The “Plasma SHIV RNA” value ([2]; animal V417, 75 mg/kg, week 0 post challenge) was 62 copies per mL, the “Plasma SHIV RNA” value ([2]; animal V417, 75 mg/kg, week 1 post challenge) was 62 copies per mL and the “Plasma SHIV RNA” value ([2]; animal V417, 75 mg/kg, week 2 post challenge) was 62 copies per mL. The Challenge outcome ([2]; animal V426, 75 mg/kg) was “Not infected”, the “Intact SHIV DNA / 10M PBMC” value ([2]; animal V426, 75 mg/kg, Wk 2 post challenge) was 1 / 10M PBMC and the “Intact SHIV DNA / 10M PBMC” value ([2]; animal V426, 75 mg/kg, Wk 10 post challenge) was 1 / 10M PBMC. The “Plasma SHIV RNA” value ([2]; animal V426, 75 mg/kg, week 0 post challenge) was 62 copies per mL, the “Plasma SHIV RNA” value ([2]; animal V426, 75 mg/kg, week 1 post challenge) was 62 copies per mL and the “Plasma SHIV RNA” value ([2]; animal V426, 75 mg/kg, week 2 post challenge) was 62 copies per mL. For the same compound, the “Plasma SHIV RNA” value ([2]; animal V426, 75 mg/kg, week 3 post challenge) was 62 copies per mL and the Challenge outcome ([2]; animal V430, 50 mg/kg) was “Not infected”.
